{"source": "patent US20260232745A1", "about": "“INHIBITION OF METHANE PRODUCTION IN RUMINANTS” (Loam Bio Pty Ltd, priority 2023, published 2026)", "molecules": {"B1": {"name": "Purified VHPO (SEQ ID NO: 3): VHPO of Curvularia spicifera US-188; purified from recombinant P. pastoris (protein)", "chain": "MGSVTPIPIPRIDEPEEYNTNYILFWNHVGLELNRITHTVGGPLTGPPLSARALGMLHLAIHDAYFSICPPSDFTTFLSPDAENVAYRLPSLNGADDARQAVAGAALKMLSLLYMKPVEQPNPNPGANISDNAYAQLGLVLDRSVLKAPGGVDQESASFMFGEAVADVFFALLNDPRGASQEGYHPTLGRYKFDDEPTHPVVLIPVDPNNPNGPKKPFRQYHAPFYGKTTKRFATQSEHFLADPPGLRSNADETAEYDDSIRVAIAMGGAQGLNSTKRSPWQTAQGLYWAYDGSNLIGTPPRFYNQIVRRIAVTYKKEEDLANSEVNNADFARLFALVNVACTDAGIFSWKEKWEFEFWRPLSGVRDDGRPDHGDPFWLTLGAPATNTNDIPFKPPFPAYPSGHATFGGAVFQMVRRYYNGRVGTWKDDEPDNIAIDMMISEELNGLNRDLRQPYDPTAPIEDQPGIVRTRIVRHFDSAWEMMFENAISRIFLGVHWRFDAAAARDILIPTTTKDVYAVDNNGATVFQNVEDVRYSTKGTREGREGLFPIGGVPLGIEIADEIFNNGLRPTPPELQPMPQETPVQKPVEGMWEEEQAPIVNEAP"}, "B2": {"name": "Purified VHPO (SEQ ID NO: 2): VHPO of Curvularia sp. 4388, reference VHPO; purified from recombinant P. pastoris (protein)", "chain": "MGSITPIPLPKIDEPEEYNTNYILFWNHVGLELNRVTHTVGGPLTGPPLSARALGMLHLAIHDAYFSIYPPTDFSTFLSPNAENAAYRLPSPNGANDARQAVAGAALKMLTSLYMKPVETPNPNPGANISDNAYAQLALVIDRSVLKAPGGVDRESASFMFGETVADVFFALLNDPRGASQEGYHPTPGRYKFDDEPTHPVVLIPVDPNNPNGPKKPFRQYHAPFYGKTTKRFATQSEHFLADPPGLRSNADETAEYDDAIRVAIAMGGAQALNSTKRSPWQTAQGLFWAYDGSNLIGTPPRFYNQIVRRIAVTYKKEEDLANSEVNNADFARLFALVDVACTDAGIFSWKEKWEYEFWRPLSGVRDDGRPDHGDPFWLTLGAPATNTNDIPFKPPFPAYPSGHATFGGAVFQMVRRYYNGRVGTWKDDEPDNIAIDMMISEELNGLNRDLRQPYDPTAPIEDQPGIVRTRIVRHFDSAWELMFENAISRIFLGVHWRFDAAAARDILIPTTTKDVYAVDNNGATVFQNVEDIRYTTKGTREDREGLFPIGGVPLGIEIADEIFNNGLKPTPPELQPMPQQTPVQKPVGQQPVQGMWAEEQAPVIKEAP"}, "B3": {"name": "Purified VHPO (SEQ ID NO: 5): VHPO of Curvularia pseudobrachyspora US-215; purified from recombinant P. pastoris (protein)", "chain": "MGSVIPIPLPKIDEPEEYNTNYVLFWNNVGLELNRVTHTVGGPLTGPPLSARALGMLHLAIHDAYFSIYPPTDFTTFLSPDAENAAYRLPSLNGANDARQAVAGAALKMLSSLYMKPDSSSGGSISDNAYAQLALVIDRSVLKAPGGVDRESASFVFGEAVADVFFALLNDPRGASQEGYHPTPGRYKFDDEPTHPVVLVPVDPNNPNGPKKPFRQYHAPFYGKTTKRFATQTEHFLADPPGLRSNADETAEYDDSIRVAVAMGGAQGLNSTKRSPWQTAQGLFWAYDGSNLVGTPPRFYNQIVRRIAVTYKKEEDLANSEVNNADFARLFALVDVACTDAGIFSWKEKWEYEFWRPLSGVRDDGRPDHGDPFWLTLGAPATNTNDIPFKPPFPAYPSGHATFGGAVFQMVRRYYNGRVGTWKDDEPDNIAIDMVISEELNGLNRDLRQPYDPTAPIEDQPGIVRTRIVRHFDSAWEMMFENAISRIFLGVHWRFDAAAARDILIPTTTKDVYAVDNNGATVFQNVEDIRYSTKGTREDREGLFPIGGVPLGIEIADEIFNNGLRPTPPELQPMPQETPVQKPIGQQLVQGLWHDEEGQVPVVKEAP"}, "B4": {"name": "Purified VHPO (SEQ ID NO: 7): VHPO of Curvularia protuberata US-1111; purified from recombinant P. pastoris (protein)", "chain": "MGSVTPIPLPKIDEPEEYNTNYILFWNYVGLELNRVTHTVGGPLTGPPLSARALGMLHLAVHDAYFSICPPTDFTTFLSPDAENAAYRLPSTNGANDARQAVAGAALKMLTSLYMKPIEQPNPNPSANISDNAYAQLALVLDRSAMEAPGGIDRESASFMFGEAVADVFFALLNDPRGASQEGYHPTPGRYKFDDEPTHPVVLIPVDPNNPNGPKKPFRQYHAPFYGKTTKRFATQSEHFLADPPGLRSNADETAEYDDAIRVAIAMGGAQALNSTKRSPWQTAQGLYWAYDGSNLIGTPPRFYNQIVRRIAVTYKKEEDIANSEVNNADFARLFALVDVACTDAGIFSWKEKWEFEFWRPLSGVRDDGRPDHGDPFWLTLGAPATNTNDIPFKPPFPAYPSGHATFGGAVFQMVRRYYNGRVGTWKDDEPDNIAIDMMISEELNGLNRDLRQPYDPTAPIEDQPGIVRTRIVRHFDSAWELMFENAISRIFLGVHWRFDAAAARDILIPTTTKDVYAVDNNGATVFQNVEDIRYTTKGTREDREGLFPIGGVPLGIEIANEIFENGLKPTPPEIQPMPQETPAQKPVKGMWQEEQVPVVEEAP"}}, "key": {"[1]": {"test_system": "methyl-coenzyme M reductase (MCR)", "settings": "background; cited from earlier work"}, "[2]": {"test_system": "Curvularia sp. 4388 (NMI Accession No. V22/011149) VHPO, purified, SEQ ID NO: 2", "settings": "MCD assay; for Km: pH 5.5, 25° C.", "description": "(§1) Kinetic parameters of VHPOs were determined using the monochlorodimedone (MCD) (2-chloro-5,5-dimethyl-1,3-dimedon) assay. The assay was carried out in a 200 μL reaction volume using Greiner UV-Star® 96 well plates. MCD conversion was spectrophotometrically monitored at 290 nm (F=20/mM·cm) using a CLARIOstar® Plus microplate reader (BMG labtech, Germany) at 25° C. […] The buffers were acetate buffer for pH 4-5.5, MES buffer for pH 6 and 6.5, and HEPES buffer for pH 7-8. The MCD mixture was prepared and aliquoted to 96-well plates, followed by enzyme addition (10 μL of appropriate dilution). […] Stock solutions were prepared in advance for KBr (0.25M), Na3VO4 (25 mM), MCD (0.5 mM, adjusted pH to 6), and buffers (1M).\n(§2) The absorbance values were plotted against time. For each curve, the slope of linear regression was determined as the initial velocity (Abs/min) of the enzyme activity.\n(§3) The following enzyme concentrations were used in the MCD assay: • For Curvularia sp."}, "[3]": {"test_system": "Curvularia pseudobrachyspora US-215 (ATCC PTA-127509) VHPO, purified, SEQ ID NO: 5", "settings": "MCD assay; for Ki: pH 5.5, substrate inhibition model; for Km: pH 5.5, 25° C.", "description": "as §1, §2, §3"}, "[4]": {"test_system": "Curvularia spicifera US-188 (ATCC PTA-127510) VHPO, purified, SEQ ID NO: 3", "settings": "MCD assay; for Ki: pH 6.5, substrate inhibition model; for Km: pH 6.5, 25° C.", "description": "as §1, §2, §3"}, "[5]": {"test_system": "Curvularia protuberata US-1111 (ATCC PTA-127607) VHPO, purified, SEQ ID NO: 7", "settings": "MCD assay; for Km: pH 5.5, 25° C.", "description": "as §1, §2, §3"}, "[6]": {"test_system": "Curvularia sp. 4388 (NMI Accession No. V22/011149) VHPO, culture supernatant", "settings": "MCD assay; for Km: pH 5.5, 25° C.", "description": "as §1, §2"}, "methane production": {"test_system": "methane production", "settings": "among the antimethanogenic compounds found in A. taxiformis; cited from earlier work"}, "[7]": {"test_system": "VHPO expressed in Curvularia sp. 4388 (SEQ ID NO: 2)", "assay": "Enzyme reaction via VHPO mediated pathway, bromoform by GCMS", "format": "biochemical", "settings": "VHPO (Curvularia sp. AU-4388 supernatant), KBr, H2O2, vanadate, 24 hours at room temperature"}, "[8]": {"assay": "MCD assay, pH profile of VHPO activity", "format": "biochemical", "settings": "for Optimal pH: first value of the cell: pH at which the kinetic parameters were determined; for optimal pH of enzyme activity: typical MCD assay, 25° C., value in brackets in Table 8, footnotes and text"}, "[9]": {"settings": "pH 5.5, final 200-fold dilution"}, "[10]": {"settings": "read-out: KI (Br-), pH 5.5, substrate inhibition model"}, "[11]": {"settings": "pH 5.5, final 20-fold dilution of supernatant"}, "[12]": {"settings": "read-out: KM (H2O2), H2O2 varied"}}, "note": "Like-named read-outs stand apart in the source and are kept apart here."}
{"molecule": "BrC(Br)Br", "note": "[bromoform]", "values": [{"measurement": "inhibition of methyl-coenzyme M reductase (MCR)", "setting": "[1]", "value": "competitive inhibitor"}]}
{"molecule": "[Br-].[K+]", "note": "[Br-, bromide]", "values": [{"measurement": "Vmax (Br-)", "setting": "[2]; [9]", "value": "0.395 [Abs/min]"}, {"measurement": "Ki", "setting": "[2]; [10]", "value": 2.9, "unit": "mM"}, {"measurement": "Km", "setting": "[2]; read-out: KM (Br-), KBr varied", "value": 68, "unit": "µM"}, {"measurement": "Vmax (Br-)", "setting": "[3]; pH 5.5, final 20-fold dilution", "value": "0.039 [Abs/min]"}, {"measurement": "Ki", "setting": "[3]; read-out: KI (Br-)", "value": 9.35, "unit": "mM"}, {"measurement": "Km", "setting": "[3]; read-out: KM (Br-), KBr varied", "value": 0.073, "unit": "mM"}, {"measurement": "Vmax (Br-)", "setting": "[4]; pH 6.5, final 20-fold dilution", "value": "0.356[Abs/min]"}, {"measurement": "Ki", "setting": "[4]; read-out: KI (Br-)", "value": 17.5, "unit": "mM"}, {"measurement": "Km", "setting": "[4]; read-out: KM (Br-), KBr varied", "value": 125, "unit": "µM"}, {"measurement": "Vmax (Br-)", "setting": "[5]; pH 5.5, final 20-fold dilution", "value": "0.0083 [Abs/min]"}, {"measurement": "Ki", "setting": "[5]; [10]", "value": 33.6, "unit": "mM"}, {"measurement": "Km", "setting": "[5]; read-out: KM (Br-), KBr varied", "value": 38.7, "unit": "µM"}, {"measurement": "Vmax (Br-)", "setting": "[6]; [11]", "value": "0.964 [Abs/min]"}, {"measurement": "Ki", "setting": "[6]; [10]", "value": 1.33, "unit": "mM"}, {"measurement": "Km", "setting": "[6]; read-out: KM (Br-), KBr varied", "value": 155, "unit": "µM"}]}
{"molecule": "BrC(Br)Br", "note": "[Bromoform, bromoform]", "values": [{"measurement": "activity at inhibiting methane production", "setting": "methane production", "value": "highest activity"}]}
{"molecule": "CC1(C)CC(=O)CC(=O)C1", "note": "[dimedone]", "values": [{"measurement": "GCMS peak for bromoform", "setting": "[7]", "value": "significant peak"}]}
{"molecule": "OO", "note": "[H2O2, hydrogen peroxide]", "values": [{"measurement": "Vmax (H2O2)", "setting": "[2]; [9]", "value": "0.378 [Abs/min]"}, {"measurement": "Km", "setting": "[2]; [12]", "value": 645, "unit": "µM"}, {"measurement": "Vmax (H2O2)", "setting": "[3]; pH 5.5, final 20-fold dilution", "value": "0.123 [Abs/min]"}, {"measurement": "Ki", "setting": "[3]; read-out: KI (H2O2)", "value": 31.3, "unit": "mM"}, {"measurement": "Km", "setting": "[3]; [12]", "value": 3.3, "unit": "mM"}, {"measurement": "Vmax (H2O2)", "setting": "[4]; pH 6.5, final 20-fold dilution", "value": "0.357 [Abs/min]"}, {"measurement": "Ki", "setting": "[4]; read-out: KI (H2O2)", "value": 2.76, "unit": "mM"}, {"measurement": "Km", "setting": "[4]; [12]", "value": 400, "unit": "µM"}, {"measurement": "Vmax (H2O2)", "setting": "[5]; pH 5.5, final 20-fold dilution", "value": "0.0103 [Abs/min]"}, {"measurement": "Km", "setting": "[5]; [12]", "value": 611, "unit": "µM"}, {"measurement": "Vmax (H2O2)", "setting": "[6]; [11]", "value": "0.466 [Abs/min]"}, {"measurement": "Km", "setting": "[6]; [12]", "value": 297, "unit": "µM"}]}
{"molecule": "ClC(Br)Br", "note": "[dibromochloromethane]", "values": [{"measurement": "activity at inhibiting methane production", "setting": "methane production", "value": "highest activity"}]}
{"molecule": "B1", "values": [{"measurement": "Optimal pH", "setting": "[8]", "value": 6.5}, {"measurement": "optimal pH of enzyme activity", "setting": "[8]", "value": 7}]}
{"molecule": "B2", "values": [{"measurement": "Optimal pH", "setting": "[8]", "value": "pH 5.5"}, {"measurement": "optimal pH of enzyme activity", "setting": "[8]", "value": 5.5}]}
{"molecule": "B3", "values": [{"measurement": "Optimal pH", "setting": "[8]", "value": "pH 5.5"}, {"measurement": "optimal pH of enzyme activity", "setting": "[8]", "value": 5.5}]}
{"molecule": "B4", "values": [{"measurement": "Optimal pH", "setting": "[8]", "value": 5.5}, {"measurement": "optimal pH of enzyme activity", "setting": "[8]", "value": 5}, {"measurement": "optimal pH of enzyme activity", "setting": "[8]; listed as SEQ ID NO: 7", "value": 5}]}
